Reference: the supplement of paper PMC10307832

Key:
Assay in all cases: relative viability (nuclei count vs DMSO), 5 days (fraction); higher = more cells survive
[1] = compound: C1=CC2=C(C=CC(=C2)C=C3C(=O)NC(=NCC4=CC=CS4)S3)N=C1 [RO-3306] + CC(C)C[C@H](NC(=O)[C@H](Cc1ccccc1)NC(=O)c1cnccn1)B(O)O [Bortezomib] (partner 0.002 µM)
Outline: (§1)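 For relative viability, nuclei counts in treated wells were divided by those in vehicle wells. Lung cancer cell lines had been pin-tool dosed in 1536-well plates the day after seeding and cultured for 5 days, then fixed and stained in one step (final 0.05% Triton X-100, 1% formaldehyde, 1 ug/ml Hoechst) and imaged at 4×. Doses were one drug alone or a fixed anchor-drug dose plus five library-drug doses (not always all listed) in √10 steps, and values are duplicate-plate medians.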

[2] = compound: O=S(=O)(c1ccccc1)N(CC(F)(F)F)c1ccc(C(O)(C(F)(F)F)C(F)(F)F)cc1 + O=C(CCCCCCC(=O)Nc1ccccc1)NO [Vorinostat] (partner 1 µM)
Outline: as §1

[3] = compound: C1=CC2=C(C=CC(=C2)C=C3C(=O)NC(=NCC4=CC=CS4)S3)N=C1 [RO-3306] + Cc1cc(Nc2cc(N3CCN(C)CC3)nc(Sc3ccc(NC(=O)C4CC4)cc3)n2)n[nH]1 [Tozasertib] (partner 0.1 µM)
Outline: as §1

[4] = compound: O=S(=O)(c1ccccc1)N(CC(F)(F)F)c1ccc(C(O)(C(F)(F)F)C(F)(F)F)cc1 + C[C@@H](Oc1cc(-c2cnn(C3CCNCC3)c2)cnc1N)c1c(Cl)ccc(F)c1Cl [Crizotinib] (partner 1 µM)
Outline: as §1

Row | Cell Line | relative viability ([1]; first compound 0.01 µM) | relative viability ([1]; first compound 0.03162 µM) | relative viability ([1]; first compound 0.1 µM) | relative viability ([1]; first compound 0.3162 µM) | relative viability ([1]; first compound 1 µM) | relative viability ([2]; first compound 0.8 µM) | relative viability ([2]; first compound 2.53 µM) | relative viability ([2]; first compound 8 µM) | relative viability ([3]; first compound 0.01 µM) | relative viability ([3]; first compound 0.03162 µM) | relative viability ([3]; first compound 0.1 µM) | relative viability ([3]; first compound 0.3162 µM) | relative viability ([3]; first compound 1 µM) | relative viability ([4]; first compound 0.8 µM) | relative viability ([4]; first compound 2.53 µM) | relative viability ([4]; first compound 8 µM)
1 | NCI-H520 | 0.802 | 0.369 | 0.5 | 0.582 | 0.435 | 0.847 | 0.678 | 0.77 | 0.44 | 0.481 | 0.39 | 0.426 | 0.394 | 0.939 | 0.767 | 0.855
2 | NCI-H596 | 0.939 | 0.917 | 1.18 | 0.812 | 0.962 | 0.583 | 0.559 | 0.6 | 0.837 | 0.712 | 0.771 | 0.834 | 0.794 | 0.921 | 0.947 | 0.926
3 | NCI-H647 | 1.13 | 0.889 | 1.04 | 0.931 | 0.751 | 0.304 | 0.404 | 0.655 | 0.333 | 0.0513 | 0.304 | 0.269 | 0.158 | 1.52 | 1.23 | 0.906
4 | NCI-H650 | 0.662 | 0.635 | 0.703 | 0.764 | 0.694 | 0.368 | 0.36 | 0.359 | 0.682 | 0.695 | 0.718 | 0.739 | 0.603 | 0.737 | 0.559 | 0.782
5 | NCI-H661 | 0.817 | 0.738 | 0.84 | 0.829 | 0.935 | 0.828 | 0.783 | 0.821 | 0.333 | 0.382 | 0.351 | 0.339 | 0.337 | 0.99 | 0.965 | 0.933
6 | NCI-H727 | 0.878 | 0.733 | 0.84 | 0.817 | 0.948 | 1.18 | 0.853 | 1.03 | 0.706 | 0.644 | 0.498 | 0.613 | 0.573 | 0.832 | 0.844 | 0.646
7 | NCI-H838 | 0.825 | 0.523 | 0.661 | 0.808 | 0.685 | 0.812 | 0.737 | 0.699 | 0.308 | 0.283 | 0.255 | 0.258 | 0.264 | 1.05 | 0.866 | 0.815
8 | NCI-H1355 | 1.5 | 1.15 | 1.17 | 1.18 | 1.2 | 0.698 | 0.624 | 0.606 | 0.473 |  | 0.532 | 0.515 | 0.491 | 1.22 | 0.98 | 0.935
9 | NCI-H1437 | 0.57 | 0.346 | 0.529 | 0.582 | 0.484 | 0.787 | 0.572 | 0.665 | 0.485 | 0.328 | 0.384 | 0.397 | 0.474 | 0.909 | 0.706 | 0.744
10 | NCI-H1650 | 0.204 | 0.184 | 0.181 | 0.192 | 0.185 | 0.511 | 0.496 | 0.58 | 0.398 | 0.366 | 0.345 | 0.309 | 0.316 | 0.972 | 0.972 | 1.04
11 | NCI-H1651 | 0.887 | 0.877 | 0.923 | 0.853 | 0.858 | 0.626 | 0.547 | 0.525 | 0.713 | 0.589 | 0.755 | 0.57 | 0.446 | 1.02 | 0.882 | 0.849
12 | NCI-H1666 | 0.848 | 0.734 | 0.713 | 0.765 | 0.598 | 0.712 | 0.823 | 0.809 | 0.64 | 0.588 | 0.59 | 0.631 | 0.59 | 0.96 | 0.795 | 0.82
13 | NCI-H1734 | 0.956 | 0.763 | 0.866 | 0.885 | 0.597 | 1.01 | 0.898 | 0.498 | 0.233 | 0.256 | 0.247 | 0.304 | 0.274 | 0.789 | 0.728 | 0.649
14 | NCI-H1755 | 1.13 | 0.983 | 0.976 | 0.936 | 0.978 | 0.907 | 0.679 | 0.592 | 0.577 | 0.688 | 0.514 | 0.547 | 0.554 | 0.96 | 0.774 | 0.782
15 | NCI-H1915 | 1.07 | 0.895 | 1.09 | 1.01 | 0.488 | 0.51 | 0.568 | 0.499 | 0.498 | 0.406 | 0.416 | 0.394 | 0.427 | 0.958 | 0.894 | 0.834
16 | NCI-H1975 | 0.468 | 0.358 | 0.343 | 0.417 | 0.243 | 0.752 | 0.752 | 0.65 | 0.834 | 0.871 | 0.769 | 0.718 | 0.284 | 1.03 | 1.01 | 0.919

Row | Cell Line | relative viability ([1]; first compound 0.01 µM) | relative viability ([1]; first compound 0.03162 µM) | relative viability ([1]; first compound 0.1 µM) | relative viability ([1]; first compound 0.3162 µM) | relative viability ([1]; first compound 1 µM) | relative viability ([2]; first compound 0.8 µM) | relative viability ([2]; first compound 2.53 µM) | relative viability ([2]; first compound 8 µM) | relative viability ([3]; first compound 0.01 µM) | relative viability ([3]; first compound 0.03162 µM) | relative viability ([3]; first compound 0.1 µM) | relative viability ([3]; first compound 0.3162 µM) | relative viability ([3]; first compound 1 µM) | relative viability ([4]; first compound 0.8 µM) | relative viability ([4]; first compound 2.53 µM) | relative viability ([4]; first compound 8 µM)
17 | NCI-H1993 |  | 1.11 | 1.02 | 0.887 | 0.777 | 0.859 | 0.575 | 0.836 | 0.649 | 0.582 | 0.558 | 0.573 | 0.605 | 0.855 | 0.686 | 0.799
18 | NCI-H2009 | 0.994 | 0.82 | 1 | 1.06 | 1 | 0.707 | 0.614 | 0.648 | 0.816 | 0.707 | 0.722 | 0.671 | 0.707 | 0.981 | 0.888 | 0.824
19 | NCI-H2023 | 1.01 | 0.795 | 0.979 | 1.13 | 1.07 | 0.567 | 0.422 | 0.512 | 0.401 | 0.327 | 0.254 | 0.241 | 0.308 | 0.754 | 0.524 | 0.61
20 | NCI-H2085 | 1.09 | 0.956 | 0.935 | 0.993 | 1.04 | 0.785 | 0.748 | 0.711 | 0.763 | 0.775 | 0.78 | 0.712 | 0.641 | 0.836 | 0.852 | 0.844
21 | NCI-H2087 | 0.726 | 0.843 | 0.729 | 0.947 | 0.738 | 0.89 | 0.509 | 0.946 | 0.254 | 0.19 | 0.214 | 0.228 | 0.217 | 1.11 | 0.841 | 0.918
22 | NCI-H2126 | 1.14 | 1.18 | 1.12 | 1.05 | 1 | 0.89 | 0.684 | 0.723 | 0.867 | 0.841 | 0.781 | 0.749 | 0.75 | 1.08 | 1.02 | 1.03
23 | NCI-H2228 | 0.937 | 0.47 | 0.917 | 0.893 | 0.636 | 0.62 | 0.427 | 0.644 | 0.225 | 0.219 | 0.221 | 0.168 | 0.223 | 0.389 | 0.354 | 0.462
24 | NCI-H2347 | 1.07 | 0.633 | 0.98 | 0.823 | 0.711 | 0.695 | 0.52 | 0.548 | 0.616 | 0.616 | 0.628 | 0.525 | 0.514 | 0.873 | 0.658 | 0.751
25 | NCI-H2405 | 1.07 | 0.963 | 0.982 | 0.959 | 1.03 | 1.02 | 0.755 | 0.913 | 0.746 | 0.723 | 0.704 | 0.675 | 0.628 | 0.884 | 0.837 | 0.9
26 | NCI-H3122 | 0.952 | 1.01 | 1.06 | 1.03 | 0.738 | 1.01 | 0.948 | 1.19 | 0.449 | 0.413 | 0.42 | 0.475 | 0.284 | 0.271 | 0.253 | 0.259
27 | PC-3 [JPC-3] | 0.936 | 0.82 | 0.965 | 0.865 | 0.805 |  | 0.637 | 0.895 | 0.872 | 0.825 | 0.892 | 0.852 | 0.416 | 1.07 | 0.907 | 0.927
28 | PC-14 | 1.16 |  | 0.991 | 0.941 | 0.865 | 0.63 | 0.857 | 0.656 | 0.78 | 0.572 | 0.527 | 0.562 | 0.488 | 1.1 | 0.893 | 0.932
29 | RERF-LC-KJ | 1.3 | 0.952 | 1.01 | 0.987 | 1.01 | 0.735 | 0.588 | 0.616 | 0.634 | 0.434 | 0.546 | 0.521 | 0.463 | 0.787 | 0.749 | 0.773
30 | SK-LU-1 | 0.767 | 0.932 | 1.08 | 1.34 | 0.853 | 0.797 | 0.705 | 0.727 | 0.266 | 0.312 | 0.313 | 0.321 | 0.282 | 1.06 | 0.748 | 0.736
31 | SW 1573 | 1.22 |  | 0.924 | 0.972 | 0.894 | 0.634 | 0.722 | 0.725 | 0.198 |  | 0.17 | 0.175 | 0.168 | 0.709 | 0.75 | 0.636
